Assay [1] concerns bacterial strains that express KPC β-lactamases. The assay is described as follows: Standard BLI potentiation MIC / synergy MIC assays, strains expressing KPC β-lactamases. The class given is cell-based. The conditions noted are these: in combination with a β-lactam; comparator Avibactam. The method in brief: (§1)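 Broth microdilution in cation-adjusted Mueller Hinton broth per CLSI M07-A9, ~10^5 CFU/mL, 18-20 h at 37 °C with aeration; engineered E. coli carrying β-lactamase plasmids kept on 25 μg/mL tetracycline. β-lactam MIC measured in 2-fold dilutions (128-0.13 μg/mL) with BLI fixed at 4 μg/mL; sMIC titrates BLI against a fixed β-lactam concentration. MIC = lowest concentration without visible turbidity.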

The test system of assay [2] is bacterial strains that express the class D cephalosporinase OXA-15. The assay is described as follows: Standard BLI potentiation MIC / synergy MIC assays, strains expressing OXA-15. The class given is cell-based, E. coli. The conditions noted are these: in combination with a β-lactam; comparator Avibactam (CCC). In outline:
as §1

Structures are written as SMILES. Structures can show the parent of a compound that is named as a salt.

The values that follow come from patent US8962843B2, “1,3,4-oxadiazole and 1,3,4-thiadiazole beta-lactamase inhibitors” (priority 2012, dated 2015).

On to `C[n+]1ccc(-c2nnc([C@@H]3CC[C@@H]4CN3C(=O)N4OS(=O)(=O)[O-])o2)cc1` [Compound 782, (2S,5R)-2-(5-(1-methylpyridin-1-ium-4-yl)-1,3,4-oxadiazol-2-yl)-7-oxo-1,6-diazabicyclo[3.2.1]octan-6-yl sulfate], for which the “activity and/or spectrum of activity against bacterial strains that express KPC β-lactamases, compared with Avibactam” value in assay [1] was “more active than Avibactam for at least one, bacterial strain that expresses KPC β-lactamase and/or show a better spectrum of activity”. The “activity against bacterial strains that express the class D cephalosporinase OXA-15, compared with Avibactam” value in assay [2] is “more active than Avibactam”.
For `N[C@H]1C[C@H](c2nnc([C@@H]3CC[C@@H]4CN3C(=O)N4OS(=O)(=O)O)s2)C1` [Compound 783, (2S,5R)-2-(5-((1r,3S)-3-aminocyclobutyl)-1,3,4-thiadiazol-2-yl)-7-oxo-1,6-diazabicyclo[3.2.1]octan-6-yl hydrogen sulfate], in assay [1], the “activity and/or spectrum of activity against bacterial strains that express KPC β-lactamases, compared with Avibactam” value was “more active than Avibactam for at least one, bacterial strain that expresses KPC β-lactamase and/or show a better spectrum of activity”. For the same compound, the “activity against bacterial strains that express the class D cephalosporinase OXA-15, compared with Avibactam” value in assay [2] was “more active than Avibactam”.
Turning to `N=C(N)N[C@H]1C[C@@H](c2nnc([C@@H]3CC[C@@H]4CN3C(=O)N4OS(=O)(=O)O)s2)C1` [Compound 784, (2S,5R)-2-(5-((1s,3R)-3-guanidinocyclobutyl)-1,3,4-thiadiazol-2-yl)-7-oxo-1,6-diazabicyclo[3.2.1]octan-6-yl hydrogen sulfate], the “activity and/or spectrum of activity against bacterial strains that express KPC β-lactamases, compared with Avibactam” value in assay [1] is “more active than Avibactam for at least one, bacterial strain that expresses KPC β-lactamase and/or show a better spectrum of activity”. Further, in assay [2], the “activity against bacterial strains that express the class D cephalosporinase OXA-15, compared with Avibactam” value is “more active than Avibactam”.
With `N=C(N)NCCc1nnc([C@@H]2CC[C@@H]3CN2C(=O)N3OS(=O)(=O)O)s1` [Compound 794, (2S,5R)-2-(5-(2-guanidinoethyl)-1,3,4-thiadiazol-2-yl)-7-oxo-1,6-diazabicyclo[3.2.1]octan-6-yl hydrogen sulfate], the “activity and/or spectrum of activity against bacterial strains that express KPC β-lactamases, compared with Avibactam” value in assay [1] was “more active than Avibactam for at least one, bacterial strain that expresses KPC β-lactamase and/or show a better spectrum of activity”. For the same compound, the “activity against bacterial strains that express the class D cephalosporinase OXA-15, compared with Avibactam” value in assay [2] is “more active than Avibactam”.
Take `N[C@H]1C[C@@H](c2nnc([C@@H]3CC[C@@H]4CN3C(=O)N4OS(=O)(=O)O)s2)C1` [Compound 795, (2S,5R)-2-(5-((1s,3R)-3-aminocyclobutyl)-1,3,4-thiadiazol-2-yl)-7-oxo-1,6-diazabicyclo[3.2.1]octan-6-yl hydrogen sulfate]: the “activity and/or spectrum of activity against bacterial strains that express KPC β-lactamases, compared with Avibactam” value in assay [1] is “more active than Avibactam for at least one, bacterial strain that expresses KPC β-lactamase and/or show a better spectrum of activity”. Also, in assay [2], the “activity against bacterial strains that express the class D cephalosporinase OXA-15, compared with Avibactam” value is reported as “more active than Avibactam”.
